This assay deals with Cannabinoid receptor 2 (Homo sapiens, UniProt P34972). The assay can be described thus: Competition Binding Assay. From the text: Competitive binding assay using cannabinoid receptors.

Here are results for 13 compounds from BindingDB's records for doi:10.1111/cbdd.12095 (Universite Lille-Nord de France, 2013).

Cannabinoid receptor 2, sequence (P34972 whole entry): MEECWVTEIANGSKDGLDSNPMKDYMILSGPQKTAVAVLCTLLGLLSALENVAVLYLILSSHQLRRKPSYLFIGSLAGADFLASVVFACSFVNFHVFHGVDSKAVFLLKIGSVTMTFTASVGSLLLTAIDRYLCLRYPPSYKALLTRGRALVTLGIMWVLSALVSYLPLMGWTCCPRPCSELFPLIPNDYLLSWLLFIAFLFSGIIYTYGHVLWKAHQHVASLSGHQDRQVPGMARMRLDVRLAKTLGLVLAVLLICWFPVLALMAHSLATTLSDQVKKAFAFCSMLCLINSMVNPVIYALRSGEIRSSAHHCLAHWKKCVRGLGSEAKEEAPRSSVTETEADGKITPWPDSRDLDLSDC

The Ki is a dissociation constant, usually derived from enzyme kinetics or from competition with a known ligand. A low value points to tighter binding. As for `O=C(CCC(=O)N1CCC(n2c(=O)[nH]c3ccccc32)CC1)c1ccc2c(c1)CCCC2` [CB2 Inhibitor, 8], the Ki was 8.83 µM.

`CC1CCCN(Cc2cc(-c3ccc4c(c3)OCO4)ccc2OCC(=O)NCc2ccccc2F)C1` (stereo not drawn) [CB2 Inhibitor, 6] had a Ki of 4.44 µM.

As for `CC1N(C)c2ccc(P(=O)(c3ccccc3)c3ccccc3)cc2C1(C)C` (stereo not drawn) [CB2 Inhibitor, 3], the inhibitory constant (Ki) amounted to 0.54 µM.

Compound `CN(C)C(CNC(=O)C1(Cc2ccccc2)CCCCC1)c1cccs1` (stereo not drawn) [CB2 Inhibitor, 13] had a Ki of 71.4 µM.

`CCC(CC)S(=O)(=O)c1cccc(-c2nnc(SCCN(C)C)n2C2CCCCCC2)c1` [CB2 Inhibitor, 9] displayed a Ki of 9.27 µM.

For the compound `c1ccc2c(c1)CCCC2Nc1nc(CN2CCCCC2)nc2sc3c(c12)CCCC3` (stereo not drawn) [CB2 Inhibitor, 7], the affinity, expressed as Ki, was 4.78 µM.

`C#CN1CCC2=C(C1)c1c(O)cc(C(C)C(C)CCCCC)cc1OC2(C)C` (stereo not drawn) [CB2 Inhibitor, 1] displayed a Ki of 0.0023 µM.

Take `CCCC(=NNC(=O)C1CC1(c1cccc(C)c1)c1cccc(C)c1)c1ccc(OC)cc1` (stereo not drawn) [CB2 Inhibitor, 10]: the Ki turned out to be 14.7 µM.

`Cc1cc(C(=O)COc2ccccc2C(N)=O)c(C)n1CCC1=CCCCC1` [CB2 Inhibitor, 4] came in with a Ki of 0.96 µM.

`CC1=CC(C(=O)CN2C(=O)NC(C)(c3ccc(F)cc3)C2=O)=C(C)C1CCc1cccs1` (stereo not drawn) [CB2 Inhibitor, 11] registered a Ki of 36.9 µM.

As to `Cc1cc(C)c(CNC(=O)c2cc3c(C)nn(Cc4ccc(F)cc4)c3s2)c(=O)[nH]1` [CB2 Inhibitor, 2], affinity was put at a Ki of 0.143 µM.

On to `CCCn1c(SCC(=O)NCC2COc3ccccc3O2)nc2sc3c(c2c1=O)CCC3` (stereo not drawn) [CB2 Inhibitor, 12], for which the affinity corresponds to a Ki of 60.9 µM.

In turn, `COc1ccc(CN2CCCn3c4c(c5cc(C)ccc53)CCCC42)cc1O` (stereo not drawn) [CB2 Inhibitor, 5] gave a Ki of 2.36 µM.
